Results taken from patent US20250290117A1, “MOLECULAR PHENOTYPIC ANTIMICROBIAL SUSCEPTIBILITY TESTING” (priority 2024, published 2025).

Legend:
[1] = system: pathogens of clinical samples; experiment: Molecular phenotypic antimicrobial susceptibility test of clinical samples, direct PCR without a separate DNA purification step (Table 6); type: cell-based
Protocol: (§1) Detection of Molecular Phenotypic Antimicrobial Susceptibility. Disclosed herein are the methods for the detection of phenotypic antimicrobial susceptibility via molecular methods. The present invention describes how a specimen 100 with a known microbial load is incubated and then exposed to a panel of antimicrobial agents to determine sensitivity (prevention of growth) or resistance (allowance of growth) to the specific antimicrobial agents tested utilizing molecular methods.
(§2) Sample Collection. Specimens 100 are collected from patients using sterile collection processes that are employed in routine clinical care. Specimens are transported to the testing facility in boric acid preservative.
(§3) Preparation of the Specimens for Testing. […] The process for pathogen isolation includes steps of harvesting the pathogen (e.g., via centrifugation), isolating pathogen DNA via a DNA isolation and/or purification kit, and performing PCR on the pathogen DNA via PCR components (e.g., primers, enzymes, buffers) as would be known to the skilled artisan. […] This aliquot is used for antimicrobial susceptibility testing if indicated based on the pathogen detection results. […] Specimens 100 with lower pathogen loads could also be utilized in the antibiotic susceptibility phase of testing with or without a longer incubation period.
(§4) Preparation of Antimicrobial Susceptibility Testing Plates. Antimicrobial solutions are prepared at known concentrations. The specific antimicrobials and their concentrations are selected based on the pathogen of interest and the described antimicrobial resistance breakpoints for that specimen pathogen and antimicrobial combination. These antimicrobials have been selected based on those commonly utilized by healthcare providers in routine clinical care for the specific type of suspected infection. The number and types of antimicrobials utilized can be customized based on the infection source, pathogen detected, patient-specific factors such as allergies or other health conditions (e.g., chronic kidney disease or concurrent medication use), or healthcare provider preferences such as antimicrobial availability or cost.
(§5) The antimicrobial solutions are prepared in liquid culture media (such as Muller Hinton Broth) to achieve the desired antimicrobial concentration and are then stored at −80° C. until use. For a given specimen, each antimicrobial is tested at a single or multiple antimicrobial concentration(s) which is its established breakpoints for sensitivity. The antimicrobial solutions are prepared and plated out for each specific pathogen. […] This allows for evaluation of pathogen load when no antimicrobial is present.
(§6) Specimen Exposure to Antimicrobial Agents. The 1 mL aliquot of the specimen 100 previously mixed with culture media and incubated is obtained. Using optical density measurements as a guide, the specimen 100 is diluted to 0.5 McFarland.
(§7) Antimicrobial exposure plates are typically placed into an incubator for 12-16 hours.
(§8) Nucleic Acid Amplification of Antimicrobial Agent Exposed Pathogens. The antimicrobial exposure plate is removed after the period of incubation. The specimen then undergoes a purification or lysis step. For example, the specimen may undergo a purification step (e.g., magnetic bead-based or other separation protocol to isolate genetic material). In another example, the specimen may undergo a cell lysis step. For example, buffer (e.g., lysis buffer) may be added and incubated in the thermal cycler for preparation for direct PCR. Next, the specimen may undergo a polymerase chain reaction (PCR) testing protocol, whereby a semi-quantitative PCR method is utilized. This may be completed either with or without a specific extraction protocol step. The pathogens can be individually targeted and detected, or a universal genetic sequence can be utilized to detect the antimicrobial susceptibility of the specimen as a whole.

[2] = system: S. aureus; experiment: Molecular phenotypic antimicrobial susceptibility test with direct PCR (no extraction DNA purification step); type: cell-based, Staphylococcus aureus
Protocol: as §1, §2, §3, §4, §5, §6, §7, §8

[3] = system: Acinetobacter baumannii; experiment: Traditional culture-based antimicrobial susceptibility test; type: cell-based
Excerpt: Table 2 illustrates the results of an example antimicrobial agent susceptibility test of the current application versus a traditional culture-based antimicrobial agent susceptibility test for […], in accordance with one or more embodiments of the disclosure. This specimen underwent extraction and/or DNA purification prior to PCR. As in Table 1, the results of the test of the current application are similar to the results from the traditional test.
Result Reporting to Healthcare Providers. The results from the antimicrobial exposure are reported to the ordering healthcare provider. This information can be utilized by the healthcare provider when selecting an antimicrobial regimen for their individual patient based on these individual specimen results and patient specific factors. […] The current standard of care for antimicrobial susceptibility testing involves the growth, isolation, and exposure of pathogens to antimicrobials. This traditional culture and sensitivity process can take multiple days to obtain results, limiting the ability of healthcare providers to receive timely results to make actionable changes in patient care or management. Healthcare providers desire a method to obtain antimicrobial susceptibility results with quicker turn-around-time. This application discloses a molecular-based phenotypic antimicrobial susceptibility method which involves pathogen exposure to a panel of antimicrobial agents at their specified minimum inhibitory concentration breakpoints for sensitivity. This method allows for more timely antimicrobial susceptibility results.

[4] = E. coli, clinical sample of r10-r24
[5] = E. coli, clinical sample of r10-r24, Ct control avg 12.97
[6] = E. coli, clinical sample of r158-r172
[7] = E. coli, clinical sample of r158-r172, Ct control avg 12.894
[8] = K. aerogenes, clinical sample of r136-r150
[9] = K. aerogenes, clinical sample of r136-r150, Ct control avg 13.854
[10] = K. pneumoniae, clinical sample of r121-r135
[11] = K. pneumoniae, clinical sample of r121-r135, Ct control avg […]
[12] = M. morganii, clinical sample of r55-r69
[13] = M. morganii, clinical sample of r55-r69, Ct control avg 12.09
[14] = M. morganii, clinical sample of r70-r84
[15] = M. morganii, clinical sample of r70-r84, Ct control avg 11.677
[16] = P. mirabilis, clinical sample of r25-r39
[17] = P. mirabilis, clinical sample of r25-r39, Ct control avg 11.801
[18] = P. mirabilis, clinical sample of r40-r54
[19] = P. mirabilis, clinical sample of r40-r54, Ct control avg 10.06

Compound | Molecular Antibiotic Susceptibility Result [1, 4] | Ct [1, 5] | Molecular Antibiotic Susceptibility Result [1, 6] | Ct [1, 7] | Molecular Antibiotic Susceptibility Result [1, 8] | Ct [1, 9] | Molecular Antibiotic Susceptibility Result [1, 10] | Ct [1, 11] | Molecular Antibiotic Susceptibility Result [1, 12] | Ct [1, 13] | Molecular Antibiotic Susceptibility Result [1, 14] | Ct [1, 15] | Molecular Antibiotic Susceptibility Result [1, 16] | Ct [1, 17] | Molecular Antibiotic Susceptibility Result [1, 18] | Ct [1, 19] | Traditional Culture Result ([3]; A. baumannii isolate 4) | Traditional Culture Result ([3]; A. baumannii isolate 5) | also measured
CO[C@@]1(NC(=O)Cc2cccs2)C(=O)N2C(C(=O)O)=C(COC(N)=O)CS[C@@H]21 [Cefoxitin] | Sensitive (Antimicrobial wells with pathogen load detected below the control wells (typically >2 cycle thresholds later) may be reported as Sensitive) | 25.006 | Sensitive (Antimicrobial wells with pathogen load detected below the control wells (typically >2 cycle thresholds later) may be reported as Sensitive) | 29.986 | Resistant | 13.468 | Sensitive (Antimicrobial wells with pathogen load detected below the control wells (typically >2 cycle thresholds later) may be reported as Sensitive) | 27.384 | Sensitive (Antimicrobial wells with pathogen load detected below the control wells (typically >2 cycle thresholds later) may be reported as Sensitive) | 29.041 | Sensitive (Antimicrobial wells with pathogen load detected below the control wells (typically >2 cycle thresholds later) may be reported as Sensitive) | 29.107 | Sensitive (Antimicrobial wells with pathogen load detected below the control wells (typically >2 cycle thresholds later) may be reported as Sensitive) | 27.055 | Sensitive (Antimicrobial wells with pathogen load detected below the control wells (typically >2 cycle thresholds later) may be reported as Sensitive) | 26.904 |  |  | Molecular Antibiotic Susceptibility Result ([1]; S. aureus, clinical sample of r85-r92): Resistant; Ct ([1]; S. aureus, clinical sample of r85-r92, Ct control avg 20.309): 20.586; Ct at Sensitive Breakpoint ([2]; S. aureus isolate NR-46412 HIP13170, Ct at control (average) 18.824): 14.322; Molecular Antimicrobial Susceptibility Result ([2]; S. aureus isolate NR-46412 HIP13170, at sensitive breakpoint): Resistant
Ampicillin/Sulbactam | Resistant | 13.482 | Sensitive (Antimicrobial wells with pathogen load detected below the control wells (typically >2 cycle thresholds later) may be reported as Sensitive) | 27.583 | Sensitive (Antimicrobial wells with pathogen load detected below the control wells (typically >2 cycle thresholds later) may be reported as Sensitive) | 29.276 | Resistant | 15.608 | Sensitive (Antimicrobial wells with pathogen load detected below the control wells (typically >2 cycle thresholds later) may be reported as Sensitive) | 26.942 | Sensitive (Antimicrobial wells with pathogen load detected below the control wells (typically >2 cycle thresholds later) may be reported as Sensitive) | 32.39 | Sensitive (Antimicrobial wells with pathogen load detected below the control wells (typically >2 cycle thresholds later) may be reported as Sensitive) | 28.121 | Sensitive (Antimicrobial wells with pathogen load detected below the control wells (typically >2 cycle thresholds later) may be reported as Sensitive) | 30.953 | Sensitive | Sensitive | 
Piperacillin/Tazobactam | Sensitive (Antimicrobial wells with pathogen load detected below the control wells (typically >2 cycle thresholds later) may be reported as Sensitive) | 24.816 | Sensitive (Antimicrobial wells with pathogen load detected below the control wells (typically >2 cycle thresholds later) may be reported as Sensitive) | 29.34 | Sensitive (Antimicrobial wells with pathogen load detected below the control wells (typically >2 cycle thresholds later) may be reported as Sensitive) | 30.839 | Sensitive (Antimicrobial wells with pathogen load detected below the control wells (typically >2 cycle thresholds later) may be reported as Sensitive) | 28.974 | Sensitive (Antimicrobial wells with pathogen load detected below the control wells (typically >2 cycle thresholds later) may be reported as Sensitive) | 13.986 | Sensitive (Antimicrobial wells with pathogen load detected below the control wells (typically >2 cycle thresholds later) may be reported as Sensitive) | 28.975 | Sensitive (Antimicrobial wells with pathogen load detected below the control wells (typically >2 cycle thresholds later) may be reported as Sensitive) | 30.658 | Sensitive (Antimicrobial wells with pathogen load detected below the control wells (typically >2 cycle thresholds later) may be reported as Sensitive) | 30.24 | Resistant | Resistant | Traditional Culture Result ([3]; A. baumannii isolate 1): Resistant; Traditional Culture Result ([3]; A. baumannii isolate 2): Resistant; Traditional Culture Result ([3]; A. baumannii isolate 3): Resistant
